Where “and” joins values, the source holds several entries; their conditions need not be identical. Identical values can stand only once. Like-named read-outs stand apart in the source and are kept apart here.
Legend:
[1] = target: P. falciparum translation (P. falciparum lysate); experiment: P. falciparum in vitro translation (PfIVT) assay, lysate-based, luciferase reporter; type: biochemical, Plasmodium falciparum
Text: (§1) Our P. falciparum in vitro translation (PfIVT) assay is built upon previously established assays ([14], [17]) and is summarized in Fig. 1A. In this assay, successful reconstitution of Plasmodium protein translation is reported via synthesis of a luciferase reporter. For PfIVT, two independent untranslated regions (UTRs), previously shown to promote strong levels of translation ([17]), were introduced upstream and downstream of the luciferase. The 5′ UTR from P. falciparum histidine-rich protein 3 (PfHrp3) ([18]) was introduced upstream of the reporter gene, and the 3′ UTR from P. falciparum histidine-rich protein 2 (PfHrp2) gene ([19]) was introduced downstream. For the reporter construct to support our complementary human IVT assay (HsIVT), the 5′ UTR was replaced with an internal ribosome entry site (IRES) from encephalomyocarditis virus (EMCV) ([20]) and the 3′ UTR was replaced with a poly(A) tail ([21]). […] Finally, a 30-bp poly(A) tail, present within the vector and downstream of the luciferase gene, was inserted to enhance mRNA stability ([21]).
(§2) Translationally active P. falciparum or human embryonic kidney (HEK) 293F lysates were supplemented with accessory, helper, amino acid, and energy regeneration solutions (see Materials and Methods for details). In vitro translation reactions were initiated by the addition of purified mRNA to each reaction well. Using this basic assay format, a number of parameters were assessed and optimized, namely, assay temperature, time, mRNA concentration, and reaction volume (summarized in Fig. S2 in the supplemental material). In addition, we compared the luminescence signal of the CBG firefly luciferase with CBG99, derived from the click beetle […] ([18]).
3D7 parasites were synchronized following two rounds of treatment with D-sorbitol (5%), as previously described ([40]). The hematocrit was reduced from 5% (for standard culture) to 1.5 to 2% and cultures were transferred into HYPERflasks (Corning). Fresh medium was added once or twice daily. […] Harvested red blood cells (infected) were lysed by incubation in 0.1% (wt/vol) saponin on ice for 10 min with gentle agitation. Free parasites were harvested by centrifugation (2,800 × g, 10 min, 4°C) and washed 3 times in wash buffer (WB; 100 mM potassium acetate, 2.5 mM magnesium acetate, 45 mM HEPES [pH 7.4], 250 mM sucrose, 2 mM dithiothreitol, and 15 μM leupeptin) to remove lysed red blood cell debris. The resulting pellet was resuspended in 1 volume of WB supplemented with cOmplete EDTA-free protease inhibitor cocktail (Roche; 1 tablet/20 mL) and human RNase A inhibitor (Sigma; 5 U/mL). Parasite lysis was achieved by nitrogen cavitation using a prechilled 45-mL Parr cell disruption vessel (1,500 lb/in^2, 60 min, 4°C). To clarify the lysate, it was centrifuged (10,000 × g, 15 min, 4°C), and the supernatant was collected, transferred into fresh tubes, and centrifuged (30,000 × g, 15 min, 4°C). As a quality assurance step for each lysate, the RNA content of the resulting supernatant was determined using a NanoDrop spectrophotometer (Shimadzu). Supernatants with RNA levels of >250 ng/μL were aliquoted (100 μL), flash frozen in liquid nitrogen, and stored at −80°C.

[2] = test system: asexual-blood-stage P. falciparum; conditions: cited from earlier work
[3] = test system: human translation (HEK 293F lysate); experiment: Human in vitro translation (HsIVT) assay, HEK 293F lysate, luciferase reporter; type: biochemical; conditions: for effect on translation in the HsIVT assay (Fig. S3A): 10 µM, three technical replicates
Text: as §1, §2
FreeStyle human embryonic kidney (HEK) 293F cells (Thermo Fisher Scientific) were grown in 500-mL polycarbonate Erlenmeyer vented flasks (Corning) containing FreeStyle 293 expression medium (Life Technologies) upon reaching a density of approximately 2 × 10^6. Cells were then centrifuged at 1,000 × g for 10 min at 4°C, the medium was discarded, and the resulting pellet was washed once in buffer II containing 20 U of human placental RNase inhibitor (Sigma-Aldrich) and cOmplete EDTA-free inhibitor cocktail (Roche) before being centrifuged at 2,800 × g for 10 min. Clarified HEK cell lysate was obtained in the same way as described for P. falciparum lysate.
PfIVT and HsIVT reactions (5 μL final volume) were performed in 384-well plates (Corning) containing 50% lysate from cells (either P. falciparum or HEK 293F), 10% amino acid solution (final concentration of 400 μM for each amino acid in 60 mM KOH; biotechrabbit), 10% energy recovery solution (final assay concentrations of 40 mM HEPES [pH 7.4], 1.5 mM ATP, 0.15 mM GTP, […] creatine phosphate, and 40 U/mL creatine phosphokinase), 10% helper solution (final assay concentrations of 200 μM cystine, 2% polyethylene glycol 3000 [PEG 3000], 1 mM spermidine, 0.5 mM folinic acid, and 15 μM leupeptin), 10% supplemental salt solution (22.5 mM HEPES [pH 7.4], 50 mM potassium acetate, 1 mM magnesium acetate, 1 mM DTT, 1 U/mL human placental RNase inhibitor, 0.1 mM leupeptin), and 10% cbg99 luciferase mRNA (3,000 ng/mL). A master mix solution containing all components was prepared on ice prior to assays, and 5 μL was dispensed into wells using an automated Integra VIAFLO 16-channel 12.5-μL pipette.

[4] = test system: asexual-blood-stage (ABS) P. falciparum; experiment: SYBR green-based P. falciparum asexual growth inhibition assay; type: cell-based; conditions: Plasmodium falciparum, read-out: EC50 values, µM PfABS (Table S1)
Description: The Plasmodium falciparum reference strain 3D7 used throughout this study was cultured as previously described ([39]). Briefly, cultures incubated at 37°C in a humidified atmosphere of 1% O2 and 3% CO2 in balance with N2 were maintained in RPMI 1640 media supplemented with 5% A^+ human red blood cells (provided by the Scottish National Blood Transfusion Service), 25 mM HEPES, 2 mM L-glutamine, 0.5% AlbuMAX II (Gibco), 12 mM sodium bicarbonate, 0.2 mM hypoxanthine, and 20 mg/L gentamicin (pH 7.3).
Our SYBR green asexual-growth assay was based on a previous report ([45]). In brief, 96-well black clear-bottom plates (Corning) were preprinted with a compound and normalized with DMSO to 0.5% of a total assay volume of 100 μL. Highly synchronized ring-stage parasites and blood were added to a 2% final parasitemia and 1% hematocrit. The compounds were incubated with parasites for 72 h prior to freezing at −20°C (to aid cell lysis). The plate was thawed on ice and lysis buffer (20 mM Tris pH 7.5, 5 mM EDTA, 0.008% [w/v] saponin, […]) containing SYBR green I (Thermo Fisher Scientific) at a final concentration of 0.02% (v/v) was added. The 96-well plate was equilibrated to room temperature for 1 h before fluorescence was determined on a TECAN Infinite Pro 200 microplate reader using green fluorescent protein (GFP) filters (excitation, 485 nm; emission, 535 nm). Data were fitted to a two-parameter equation using GraFit version 7.0 (Erithacus Software), and EC50 values were calculated. An excess of the standard inhibitor mefloquine (10 μM) was used to define 0% parasite growth.

CBG99 luciferase = CBG99 luciferase (Pyrophorus plagiophthalamus, UniProt Q7M4K1); experiment: Luciferase counterscreen (false-positive counterscreen); type: biochemical, click beetle; conditions: read-out: IC50 value (μM) Counterscreen; Pathogen Box hits; weighted mean ± SD of two technical replicates
Sequence of CBG99 luciferase (Q7M4K1 entry or part of it): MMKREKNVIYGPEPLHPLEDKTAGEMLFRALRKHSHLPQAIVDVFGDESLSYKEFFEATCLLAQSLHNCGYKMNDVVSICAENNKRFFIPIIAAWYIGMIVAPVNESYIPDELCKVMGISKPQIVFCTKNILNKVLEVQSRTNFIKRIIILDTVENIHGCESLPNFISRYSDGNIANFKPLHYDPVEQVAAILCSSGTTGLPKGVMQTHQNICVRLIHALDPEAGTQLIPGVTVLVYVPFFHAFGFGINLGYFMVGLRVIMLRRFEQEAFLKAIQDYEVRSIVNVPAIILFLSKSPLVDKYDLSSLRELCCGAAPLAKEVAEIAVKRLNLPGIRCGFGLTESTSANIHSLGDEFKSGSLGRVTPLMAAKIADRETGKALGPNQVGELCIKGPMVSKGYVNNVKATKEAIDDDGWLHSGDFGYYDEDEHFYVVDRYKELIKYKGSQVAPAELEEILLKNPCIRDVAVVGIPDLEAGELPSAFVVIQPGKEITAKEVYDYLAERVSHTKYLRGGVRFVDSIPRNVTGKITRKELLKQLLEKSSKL
Description: Hits identified in our primary assay screen were assessed for their potential to interfere with the cbg99 luciferase reporter. For this counterscreen, the master mix containing all the components required for translation (as described above) was incubated for 210 min at 32°C, resulting in the in vitro translation of cbg99 luciferase. The produced luciferase was then incubated with test compounds for 5 min prior to the addition of luciferase reaction buffer. […] Hits from the primary screen were assessed as luciferase inhibitors in 8-point dose-dependent assays ranging from 30 μM to 13.7 nM (1:3 dilutions). Levels of luciferase inhibition were determined relative to the positive control.

[5] = established inhibitors of protein translation, read-out: IC50 values, µM PfIVT (Table S1)
[6] = established inhibitors of protein translation

For `C[C@@H]1C[C@H](C)C[C@H](C)[C@@H](O)CC(=O)O[C@H]([C@@H]2CCC[C@H]2C(=O)O)C/C=C/C=C(/C#N)[C@H](O)[C@@H](C)C1` [Borrelidin, borrelidin, reference compound], the IC50 [1, 5] is listed as 1.2 µM and the EC50 ([2]; ref 50 (supplement numbering), read-out: EC50 values, µM PfABS (Table S1)) is listed as 0.002 µM.

In the case of `C[C@H]1CCC[C@H](C[C@H]2Cc3cc(O)cc(O)c3C(=O)O2)O1` [Cladosporin, cladosporin, reference compound], the IC50 [1, 5] is reported as 13 µM, the “effect on translation in the HsIVT assay (Fig. S3A)” value [3] is reported as “little or no effect” and the “activity in HsIVT assay at 100 μM” value ([3]; 100 μM) is reported as “inactive”. The EC50 [4, 6] was 0.07 µM.

For `C[C@@H]1C[C@@H]([C@H](O)CC2CC(=O)NC(=O)C2)C(=O)[C@@H](C)C1` [Cycloheximide, cycloheximide, reference compound], the IC50 [1, 5] was 0.5 µM, the “inhibition of translation in HsIVT assay (validation)” value [3] was “successfully inhibit translation” and the “effect on translation in the HsIVT assay (Fig. S3A)” value [3] was “ablated activity”. The IC50 ([3]; weighted mean ± SD from at least two biological replicates, read-out: IC50 in the HsIVT assay (Fig. S3B)) was 1.2 ± 0.04 µM and the EC50 [4] was 0.1 µM.

With `O=C(NCCN1CCCC1)c1cc(-c2ccc(CN3CCOCC3)cc2Cl)nc2ccc(F)cc12` [DDD00197451, reference compound] the IC50 [1, 5] was 0.5 µM, the “inhibition of translation (PfIVT), internal control” value ([1]; internal control in all plates of the single-point screens) was over 97% and the EC50 [4, 6] was 0.003 µM.

Molecule `NCCCC[C@H](N)C(=O)NS(=O)(=O)OC[C@H]1O[C@@H](n2cnc3c(N)ncnc32)[C@H](O)[C@@H]1O` [DDD01712277, reference compound] has an IC50 [1, 5] of 0.2 µM and an EC50 [4, 6] of 0.1 µM.

With `Cc1ccc2c(c1C)NC(=O)C21NN=C(c2ccccc2)S1` (centres unmarked) [MMV019189] the “selectivity index/window, PfIVT compared to HsIVT” value ([1]; HsIVT IC50 over PfIVT IC50) was at least 30 fold, the IC50 ([1]; Pathogen Box hits, 8-point, weighted mean ± SD of two technical replicates, read-out: IC50 value (μM) PfIVT) was 0.03 ± 0.009 µM and the IC50 ([1]; Table 3, read-out: PfIVT IC50) was 0.03 ± 0.009 µM. For the same molecule, the “PfIVT inhibition at 30 μM (%)” value ([1]; single-point screen, 30 μM, Pathogen Box) was 84.4%, the IC50 ([3]; Pathogen Box hits, weighted mean ± SD of two technical replicates, read-out: IC50 value (μM) HsIVT) was 7.7 ± 0.3 µM and the IC50 (CBG99 luciferase) was 7 µM and > 30 µM. For the same molecule, the EC50 ([2]; P. falciparum 3D7 cell line, read-out: P. falciparum asexual-blood-stage EC50) was 0.75 µM.

— paper PMC9211397, “High-Throughput Screening Platform To Identify Inhibitors of Protein Synthesis with Potential for the Treatment of Malaria” (Antimicrobial Agents and Chemotherapy, 2022)
